Laboratory results from patent US12582120B2, “Compositions with fatty acids and optional cationic compounds and methods of use” (priority 2021, dated 2026).
“And” between values parts separate entries of the source, which are not always exact repeats. Equal entries are not always repeated.

What was measured:
[1] = test system: Saccharomyces cerevisiae (ATCC 834); test: Example 1 preliminary screen of antimicrobial efficacy, yeast; format: cell-based; details: pH 9, 60 s, 50 °C
Method: (§1) Example 1 was a preliminary screen of various compositions for antimicrobial efficacy against acetobacter and lactobacillus and yeast. For this example, the compositions were applied for 1 minute at 50° C. or 60° C. to Acetobacter aceti (ATCC 15973), Lactobacillus brevis (ATCC 14869), or Saccharomyces cerevisiae (ATCC 834).

[2] = test system: Acetobacter aceti (ATCC 15973); test: Example 1 preliminary screen of antimicrobial efficacy, Acetobacter; format: cell-based; details: 60 s, 50 °C
Method: as §1

[3] = test system: Lactobacillus brevis (ATCC 14869); test: Example 1 preliminary screen of antimicrobial efficacy, Lactobacillus; format: cell-based
Text: Example 1 was a preliminary screen of various compositions for antimicrobial efficacy against acetobacter and lactobacillus and yeast. […]

[4] = test system: Lactobacillus brevis (ATCC 14869); test: Example 3 suspension test of nonanoic acid alone, Lactobacillus; format: cell-based; details: for % reduction / Log Reduction: Nonanoic Acid 200 ppm
Method: (§2) Example 3 tested concentrations of nonanoic acid alone for antimicrobial efficacy against acetobacter and lactobacillus. For this example, the compositions were applied for the recorded time and temperature to suspensions of Acetobacter aceti (ATCC 15973), or Lactobacillus brevis (ATCC 14869). After the period of time, a neutralizer was added to quench the reaction. The remaining solution was plated and counted for colonies and compared to the untreated control. The log reduction was recorded in the table below. The information in the column labeled “solution” describes the solution environment that was used for a test. For example, the solution may have included 0.5% or 1% sodium bicarbonate. The solution may have included multi-day old used clean-in-place solution from a plant that included sodium carbonate (labeled “used CIP”). The pH of the solution was adjusted with sodium carbonate.

[5] = test system: Acetobacter aceti (ATCC 15973); test: Example 3 suspension test of nonanoic acid alone, Acetobacter; format: cell-based; details: for % reduction / Log Reduction: Nonanoic Acid 200 ppm, pH 9
Method: as §2

[6] = known antimicrobial agents; cited from earlier work
[7] = pH 8.5, 60 s, 50 °C, 1% sodium bicarbonate
[8] = pH 8.5, 600 s, 50 °C, 1% sodium bicarbonate
[9] = pH 8.5, 2 days, 20 °C, used CIP
[10] = pH 8.7, 60 s, 45 °C, 0.5% sodium bicarbonate
[11] = pH 8.7, 120 s, 45 °C, 0.5% sodium bicarbonate
[12] = pH 8.7, 300 s, 45 °C, 0.5% sodium bicarbonate
[13] = pH 8.7, 600 s, 45 °C, 0.5% sodium bicarbonate
[14] = pH 9, 60 s, 50 °C, 1% sodium bicarbonate
[15] = pH 10.5, 60 s, 50 °C, 1% sodium bicarbonate
[16] = pH 10.5, 600 s, 50 °C, used CIP
[17] = pH not adjusted, 60 s, 45 °C, 0.5% sodium bicarbonate
[18] = pH not adjusted, 120 s, 45 °C, 0.5% sodium bicarbonate
[19] = pH not adjusted, 300 s, 45 °C, 0.5% sodium bicarbonate
[20] = pH not adjusted, 600 s, 45 °C, 0.5% sodium bicarbonate
[21] = various times, temperatures, pHs, and solution conditions (Table 3)
[22] = 60 s, 50 °C, 1% sodium bicarbonate

Question: What does the source list for `CCCCCCCCCCCC(=O)N[C@@H](CCCN=C(N)N)C(=O)OCC` [Ethyl Lauroyl Arginate, ethyl lauroyl arginate]?
Answer: % reduction ([1]; Ethyl Lauroyl Arginate 5 ppm): 99.888%; % reduction ([2]; Ethyl Lauroyl Arginate 2.5 ppm, pH 9): 99.891%; % reduction ([2]; Ethyl Lauroyl Arginate 5 ppm, pH 9): 99.981% and 99.922%; % reduction ([2]; Ethyl Lauroyl Arginate 25 ppm, pH 4): 32.759%; % reduction ([2]; Ethyl Lauroyl Arginate 25 ppm, pH 9): 99.808%; % reduction ([2]; Ethyl Lauroyl Arginate 25 ppm, pH 10): 99.241%; % reduction ([2]; Ethyl Lauroyl Arginate 50 ppm, pH 4): 98.491%; % reduction ([2]; Ethyl Lauroyl Arginate 50 ppm, pH 10): 99.763%; % reduction ([2]; Ethyl Lauroyl Arginate 200 ppm, pH 7): 99.999%; % reduction ([2]; Ethyl Lauroyl Arginate 200 ppm, pH 10): 99.998%; % reduction ([3]; Ethyl Lauroyl Arginate 5 ppm, pH 4, 60 s, 50 °C): 98.844%; % reduction ([3]; Ethyl Lauroyl Arginate 5 ppm, pH 9, 60 s, 50 °C): 99.999%; % reduction ([3]; Ethyl Lauroyl Arginate 25 ppm, pH 4, 50 s, 60 °C): 99.999%; % reduction ([3]; Ethyl Lauroyl Arginate 25 ppm, pH 10, 50 s, 60 °C): 100.000%; % reduction ([3]; Ethyl Lauroyl Arginate 50 ppm, pH 4, 50 s, 60 °C): 100.000%; % reduction ([3]; Ethyl Lauroyl Arginate 50 ppm, pH 10, 50 s, 60 °C): 100.000%

Question: Which “% reduction” value ([1]; Nonanoic Acid 125 ppm) does the source give for `CCCCCCCCC(=O)O` [Nonanoic Acid, nonanoic acid] here?
Answer: 99.954%

Question: And the “% reduction” value ([2]; Nonanoic Acid 125 ppm, pH 9)?
Answer: 99.998%

Question: And the “% reduction” value [4, 7]?
Answer: 99.636%

Question: What about the “Log Reduction” value [4, 7] of the same compound?
Answer: 2.44

Question: What about the “% reduction” value [4, 8] of the same compound?
Answer: 100.000%

Question: And the “Log Reduction” value [4, 8]?
Answer: 6.90

Question: What about the “% reduction” value ([4]; pH 8.5, 600 s, 50 °C, used CIP) of the same compound?
Answer: 100.000%

Question: And the “Log Reduction” value ([4]; pH 8.5, 600 s, 50 °C, used CIP)?
Answer: 7.04

Question: What about the “% reduction” value [4, 9] of the same compound?
Answer: 100.000%

Question: What about the “Log Reduction” value [4, 9] of the same compound?
Answer: 7.20

Question: What about the “% reduction” value [4, 10] of the same compound?
Answer: 99.900%

Question: And the “Log Reduction” value [4, 10]?
Answer: 3.00

Question: And the “% reduction” value [4, 11]?
Answer: 100.000%

Question: And the “Log Reduction” value [4, 11]?
Answer: 7.64

Question: What about the “% reduction” value [4, 12] of the same compound?
Answer: 100.000%

Question: And the “Log Reduction” value [4, 12]?
Answer: 7.64

Question: And the “% reduction” value [4, 13]?
Answer: 100.000%

Question: And the “Log Reduction” value [4, 13]?
Answer: 7.64

Question: What about the “% reduction” value [4, 14] of the same compound?
Answer: 99.736%

Question: What about the “Log Reduction” value [4, 14] of the same compound?
Answer: 2.58

Question: What about the “% reduction” value ([4]; pH 9, 600 s, 50 °C, used CIP) of the same compound?
Answer: 100.000%

Question: And the “Log Reduction” value ([4]; pH 9, 600 s, 50 °C, used CIP)?
Answer: 7.04

Question: And the “% reduction” value ([4]; pH 9, 2 days, 20 °C, used CIP)?
Answer: 100.000%

Question: What about the “Log Reduction” value ([4]; pH 9, 2 days, 20 °C, used CIP) of the same compound?
Answer: 7.20

Question: And the “% reduction” value [4, 15]?
Answer: 100.000%

Question: What about the “Log Reduction” value [4, 15] of the same compound?
Answer: 7.04

Question: And the “% reduction” value [4, 16]?
Answer: 100.000%

Question: And the “Log Reduction” value [4, 16]?
Answer: 7.04

Question: And the “% reduction” value [4, 17]?
Answer: 99.905%

Question: And the “Log Reduction” value [4, 17]?
Answer: 3.02

Question: What about the “% reduction” value [4, 18] of the same compound?
Answer: 100.000%

Question: And the “Log Reduction” value [4, 18]?
Answer: 6.34

Question: And the “% reduction” value [4, 19]?
Answer: 100.000%

Question: What about the “Log Reduction” value [4, 19] of the same compound?
Answer: 7.64

Question: And the “% reduction” value [4, 20]?
Answer: 100.000%

Question: And the “Log Reduction” value [4, 20]?
Answer: 7.64

Question: What about the “reducing gram positive bacteria” value [4, 21] of the same compound?
Answer: effective

Question: And the “% reduction” value [5, 22]?
Answer: 99.993%

Question: What about the “Log Reduction” value [5, 22] of the same compound?
Answer: 4.18

Question: What about the “% reduction” value ([5]; 2 days, 20 °C, used CIP) of the same compound?
Answer: 97.846%

Question: And the “Log Reduction” value ([5]; 2 days, 20 °C, used CIP)?
Answer: 1.67

Question: What about the “reducing gram negative bacteria” value [5, 21] of the same compound?
Answer: effective

Question: And the “% reduction” value ([3]; Nonanoic Acid 125 ppm, pH 4, 60 s, 50 °C)?
Answer: 100.000%

Question: What about the “% reduction” value ([3]; Nonanoic Acid 125 ppm, pH 9, 60 s, 50 °C) of the same compound?
Answer: 96.125%

Question: What does the source list for `CCCCCCCC(=O)O` [Octanoic Acid, octanoic acid]?
Answer: % reduction ([1]; Octanoic Acid 125 ppm): 100.000%; % reduction ([2]; Octanoic Acid 100 ppm, pH 4): 0.000%; % reduction ([2]; Octanoic Acid 100 ppm, pH 5): 54.967%; % reduction ([2]; Octanoic Acid 100 ppm, pH 9): 99.999% and 99.998%; % reduction ([2]; Octanoic Acid 125 ppm, pH 9): 99.998%; % reduction ([2]; Octanoic Acid 150 ppm, pH 4): 86.207%; % reduction ([2]; Octanoic Acid 200 ppm, pH 4): 99.998% and 99.996%; % reduction ([2]; Octanoic Acid 200 ppm, pH 7): 99.993%; % reduction ([3]; Octanoic Acid 125 ppm, pH 4, 60 s, 50 °C): 100.000%; % reduction ([3]; Octanoic Acid 125 ppm, pH 9, 60 s, 50 °C): 97.813%; % reduction ([3]; Octanoic Acid 150 ppm, pH 4, 50 s, 60 °C): 100.000%; % reduction ([3]; Octanoic Acid 200 ppm, pH 4, 50 s, 60 °C): 100.000%

Question: Which “Typical Antimicrobial pH Range” value [6] does the source give for `OO` [hydrogen peroxide] here?
Answer: <5

Question: Which “Typical Antimicrobial pH Range” value [6] does the source give for `CC(=O)OO` [peracetic acid] here?
Answer: <7

Question: Which “Typical Antimicrobial pH Range” value [6] does the source give for `CCCCCCCC(=O)OO` [peroctanoic acid] here?
Answer: <5

Question: For acidified sodium chlorite, which “Typical Antimicrobial pH Range” value [6] is on record?
Answer: 2.5-4
